This is an account of results in patent publication US7846928B2, “Substituted pyrazolopyridines and salts thereof, pharmaceutical compositions comprising same, methods of preparing same and uses of same” (Bayer Schering Pharma AG, priority 2006, dated 2010).

The target of one test is Tie2 (Homo sapiens, UniProt Q02763). Description: Tie-2-Kinase HTRF-Assay without kinase preactivation (assay 2). Format: biochemical. More on the design: fusion protein of GST and the intracellular domains of Tie-2; GST; made in house; host or cells: insect cells (Hi-5). Conditions: GST-Tie-2 without preactivation, 10 μM ATP; pIC50 = -log IC50 molar. From the text: Tie2-inhibitory activity of compounds of the present invention was quantified employing two Tie2 HTRF assay as described in the following paragraphs.
A recombinant fusion protein of GST and the intracellular domains of Tie-2, expressed in insect cells (Hi-5) and purified by Glutathion-Sepharose affinity chromatography was used as kinase. Alternatively, commercially available GST-Tie2-fusion protein (Upstate Biotechnology, Dundee, Scotland) can be used As substrate for the kinase reaction the biotinylated peptide biotin-Ahx-EPKDDAYPLYSDFG (C-terminus in amid form) was used which can be purchased e.g. from the company Biosynthan GmbH (Berlin-Buch, Germany). Detection of phosphorylated product is achieved specifically by a trimeric detection complex consisting of the phosphorylated substrate, streptavidin-XLent (SA-XLent) which binds to biotin, and Europium Cryptate-labeled anti-phosphotyrosine antibody PT66 which binds to phosphorylated tyrosine.
Tie-2 (3.5 ng/measurement point) was incubated for 60 min at 22° C. in the presence of 10 μM adenosine-tri-phosphate (ATP) and 1 μM substrate peptide (biotin-Ahx-EPKDDAYPLYSDFG-NH2) with different concentrations of test compounds (0 μM and concentrations in the range 0.001-20 μM) in 5 μl assay buffer [50 mM Hepes/NaOH pH 7, 10 mM MgCl2, 0.5 mM MnCl2, 1.0 mM dithiothreitol, 0.01% NP40, protease inhibitor mixture (“Complete w/o EDTA” from Roche, 1 tablet per 2.5 ml), 1% (v/v) dimethylsulfoxide]. The reaction was stopped by the addition of 5 μl of an aqueous buffer (25 mM Hepes/NaOH pH 7.5, 0.28% (w/v) bovine serum albumin) containing EDTA (90 mM) and the HTRF (Homogeneous Time Resolved Fluorescence) detection reagents streptavidine-XLent (0.2 μM, from Cis Biointernational, Marcoule, France) and PT66-Eu-Chelate (0.3 ng/μl; a europium-chelate labelled anti-phospho-tyrosine antibody from Perkin Elmer).
(§1) The resulting mixture was incubated 1 h at 22° C. to allow the binding of the biotinylated phosphorylated peptide to the streptavidine-XLent and the PT66-Eu-Chelate. Subsequently the amount of phosphorylated substrate peptide was evaluated by measurement of the resonance energy transfer from the PT66-Eu-Chelate to the streptavidine-XLent. Therefore, the fluorescence emissions at 620 nm and 665 nm after excitation at 350 nm was measured in a HTRF reader, e.g. a Rubystar (BMG Labtechnologies, Offenburg, Germany) or a Viewlux (Perkin-Elmer). The ratio of the emissions at 665 nm and at […] was taken as the measure for the amount of phosphorylated substrate peptide. The data were normalised (enzyme reaction without inhibitor=0% inhibition, all other assay components but no enzyme=100% inhibition) and IC50 values were calculated by a 4 parameter fit using an inhouse software.

Test [1] deals with T1, human insuline receptor (Ins-R) kinase domain (Homo sapiens, UniProt P06213).
T1 construct: GST-tagged recombinant kinase domain of the human insuline receptor; GST; purchased ProQinase, Freiburg, Germany; host or cells: SF-9 cells
As to the kind of experiment: InsR HTRF assay (assay 4). In kind it is biochemical. The note with it: IC50 assay 4/IC50 assay 2. Here is the method:
Inhibitory activity of compounds against the kinase activity of the insulin receptor was quantified employing the Ins-R HTRF assay as described in the following paragraphs.
GST-tagged recombinant kinase domain of the human insuline receptor (Ins-R, purchase from ProQinase, Freiburg, Germany) expressed in SF-9 cells was used as kinase. As substrate for the kinase reaction biotinylated poly-(Glu,Tyr) (Cis biointernational, France) was used.
Ins-R was incubated for 20 min at 22° C. in the presence of different concentrations of test compounds in 5 μl assay buffer [50 mM Hepes/NaOH pH 7, 15 mM MnCl2, 1 mM dithiothreitol, 0.1 μM sodium ortho-vanadate, 0.015% (v/v) PEG20000, 10 μM adenosine-tri-phosphate (ATP), 0.3 μg/ml substrate, 1% (v/v) dimethylsulfoxide]. The concentration of Ins-R was adjusted depending of the activity of the enzyme lot and was chosen appropriate to have the assay in the linear range, typical concentrations were in the range of 10 pg/μl. The reaction was stopped by the addition of 5 μl of a solution of HTRF detection reagents (0.1 μM streptavidine-XLent and 1 nM PT66-Eu-Chelate, an europium-chelate labelled anti-phosphotyrosine antibody from Perkin Elmer) in an aqueous EDTA-solution (80 mM EDTA, 0.2% (w/v) bovine serum albumin in 50 mM HEPES/NaOH pH 7.0).
as §1, with “substrate” for “substrate peptide”, “substrate.” for “substrate peptide.”
On the technique in general: Time-resolved FRET reads energy transfer from a long-lived donor to a nearby acceptor.

Each structure is given as a SMILES string. Bounds are passed on as bounds.

T1 sequence (P06213 1023-1298 limits assumed): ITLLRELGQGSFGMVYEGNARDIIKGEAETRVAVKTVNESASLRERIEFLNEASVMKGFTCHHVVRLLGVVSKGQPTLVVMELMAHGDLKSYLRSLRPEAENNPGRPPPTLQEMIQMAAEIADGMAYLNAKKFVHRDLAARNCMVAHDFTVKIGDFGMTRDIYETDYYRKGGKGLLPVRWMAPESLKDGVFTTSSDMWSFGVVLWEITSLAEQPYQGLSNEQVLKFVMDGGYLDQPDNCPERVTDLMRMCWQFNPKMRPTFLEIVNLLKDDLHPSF
Chain of Tie2 (Q02763 770-1124 limits assumed): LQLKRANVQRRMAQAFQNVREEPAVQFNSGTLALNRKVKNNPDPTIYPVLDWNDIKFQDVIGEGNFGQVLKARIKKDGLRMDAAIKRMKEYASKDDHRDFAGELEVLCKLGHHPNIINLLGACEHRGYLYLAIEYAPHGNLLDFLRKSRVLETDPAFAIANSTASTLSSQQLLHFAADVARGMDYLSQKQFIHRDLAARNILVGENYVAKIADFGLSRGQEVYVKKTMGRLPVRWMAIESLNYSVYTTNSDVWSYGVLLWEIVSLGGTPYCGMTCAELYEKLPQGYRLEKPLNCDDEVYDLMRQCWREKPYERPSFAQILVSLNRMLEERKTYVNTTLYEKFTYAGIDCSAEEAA

By IC50 is commonly meant the concentration that gives 50% inhibition. On to `Cn1ncc2c(-c3ccc(NC(=O)Nc4cccc(C(F)(F)F)c4)cc3)ccnc21` [1.4, 1-[4-(1-Methyl-1H-pyrazolo[3,4-b]pyridin-4-yl)-phenyl]-3-(3-trifluoromethyl-phenyl)-urea], for which the IC50 on Tie2 was < 0.501 µM. In addition, the “Selectivity vs. InsR” value in test [1] is >20 fold.

On to `Cc1ccc(F)c(NC(=O)Nc2ccc(-c3cc(CN4CCOCC4)nc4c3cnn4C)cc2)c1` [3.5, 1-(2-Fluoro-5-methyl-phenyl)-3-[4-(1-methyl-6-morpholin-4-ylmethyl-1H-pyrazolo[3,4-b]pyridin-4-yl)-phenyl]-urea], for which, on Tie2, the half-maximal inhibitory concentration (IC50) is < 0.501 µM. Besides, the “Selectivity vs. InsR” value in test [1] was >20 fold.

In the case of `CN1CCN(Cc2ccc(NC(=O)Nc3ccc(-c4cc(C(C)(C)C)nc5[nH]ncc45)cc3)cc2C(F)(F)F)CC1` [1.15, 1-[4-(6-tert-Butyl-1H-pyrazolo[3,4-b]pyridin-4-yl)-phenyl]-3-[4-(4-methyl-piperazin-1-ylmethyl)-3-trifluoromethyl-phenyl]-urea], on Tie2, the IC50 was < 0.501 µM. The “Selectivity vs. InsR” value in test [1] was >20 fold.

Consider `Cc1cc(-c2ccc(NC(=O)Nc3cccc(C(F)(F)F)c3)cc2)c2cn[nH]c2n1` [1.18, 1-[4-(6-Methyl-1H-pyrazolo[3,4-b]pyridin-4-yl)-phenyl]-3-(3-trifluoromethyl-phenyl)-urea], for which the IC50 against Tie2 was < 0.501 µM. In addition, in test [1], the “Selectivity vs. InsR” value is given as >20 fold.

Turning to `CCc1cccc(NC(=O)Nc2ccc(-c3cc(C(C)(C)C)nc4[nH]ncc34)cc2)c1` [1.1, 1-[4-(6-tert-Butyl-1H-pyrazolo[3,4-b]pyridin-4-yl)-phenyl]-3-(3-ethylphenyl)-urea], the IC50 against Tie2 was < 0.501 µM. Further, the “Selectivity vs. InsR” value in test [1] is >20 fold.

`Cc1cccc(NC(=O)Nc2ccc(-c3cc(C(C)(C)C)nc4[nH]ncc34)cc2)c1` [1.11, 1-[4-(6-tert-Butyl-1H-pyrazolo[3,4-b]pyridin-4-yl)-phenyl]-3-m-tolyl-urea] returned an IC50 against Tie2 of 0.501 to 1 µM. Moreover, in test [1], the “Selectivity vs. InsR” value is listed as >20 fold.

The molecule `Cc1cc(-c2ccc(NC(=O)Nc3ccc(F)c(C(F)(F)F)c3)cc2)c2cnn(C)c2n1` [2.5, 1-[4-(1,6-Dimethyl-1H-pyrazolo[3,4-b]pyridin-4-yl)-phenyl]-3-(4-fluoro-3-trifluoromethyl-phenyl)-urea] yielded an IC50 at Tie2 of 0.501 to 1 µM. In test [1], the “Selectivity vs. InsR” value is on record as >20 fold.

For `COc1ccc(C(F)(F)F)cc1NC(=O)Nc1ccc(-c2cc(C)nc3c2cnn3C)cc1` [2.7, 1-[4-(1,6-Dimethyl-1H-pyrazolo[3,4-b]pyridin-4-yl)-phenyl]-3-(2-methoxy-5-trifluoromethyl-phenyl)-urea], the 50% inhibitory concentration (IC50) on Tie2 is < 0.501 µM. For the same molecule, the “Selectivity vs. InsR” value in test [1] is >20 fold.

For the molecule `CN1CCC(Oc2ccc(NC(=O)Nc3ccc(-c4ccnc5c4cnn5C)cc3)cc2C(F)(F)F)CC1` [1.23, 1-[4-(1-Methyl-piperidin-4-yloxy)-3-trifluoromethyl-phenyl]-3-[4-(1-methyl-1H-pyrazolo[3,4-b]pyridin-4-yl)-phenyl]-urea], the IC50 on Tie2 is < 0.501 µM. For the same molecule, the “Selectivity vs. InsR” value in test [1] is >20 fold.

In the case of `CC(C)c1cc(-c2ccc(NC(=O)Nc3cccc(C(F)(F)F)c3)cc2)c2cn[nH]c2n1` [1.2, 1-[4-(6-Isopropyl-1H-pyrazolo[3,4-b]pyridin-4-yl)-phenyl]-3-(3-trifluoromethyl-phenyl)-urea], the IC50 against Tie2 was < 0.501 µM. For the same molecule, the “Selectivity vs. InsR” value in test [1] is on record as >20 fold.

As for `Cn1ncc2c(-c3ccc(NC(=O)Nc4cc(C(F)(F)F)ccc4F)cc3)ccnc21` [1.8, 1-(2-Fluoro-5-trifluoromethyl-phenyl)-3-[4-(1-methyl-1H-pyrazolo[3,4-b]-pyridin-4-yl)-phenyl]-urea], at Tie2, the IC50 was < 0.501 µM. Besides, in test [1], the “Selectivity vs. InsR” value is given as >20 fold.

On to `CCc1cccc(NC(=O)Nc2ccc(-c3cc(CN4CCOCC4)nc4c3cnn4C)cc2)c1` [3.4, 1-(3-Ethyl-phenyl)-3-[4-(1-methyl-6-morpholin-4-ylmethyl-1H-pyrazolo[3,4-b]pyridin-4-yl)-phenyl]-urea], for which the IC50 against Tie2 was < 0.501 µM. For the same molecule, in test [1], the “Selectivity vs. InsR” value is >20 fold.

Turning to `Cn1ncc2c(-c3ccc(NC(=O)Nc4cccc(C(F)(F)F)c4)cc3)cc(C3CCC3)nc21` [1.37, 1-[4-(6-Cyclobutyl-1-methyl-1H-pyrazolo[3,4-b]pyridin-4-yl)-phenyl]-3-(3-trifluoromethyl-phenyl)-urea], on Tie2, the IC50 is < 0.501 µM. Besides, the “Selectivity vs. InsR” value in test [1] was >20 fold.

Turning to `Cc1cc(-c2ccc(NC(=O)Nc3cc(F)cc(C(F)(F)F)c3)cc2)c2cnn(C)c2n1` [2.4, 1-[4-(1,6-Dimethyl-1H-pyrazolo[3,4-b]pyridin-4-yl)-phenyl]-3-(3-fluoro-5-trifluoromethyl-phenyl)-urea], on Tie2, the IC50 is < 0.501 µM. In addition, the “Selectivity vs. InsR” value in test [1] is >20 fold.

With `CN(C)C(=O)C1(c2cc(-c3ccc(NC(=O)Nc4cccc(C(F)(F)F)c4)cc3)c3cnn(C)c3n2)CC1` [1.26, 1-(1-Methyl-4-{4-[3-(3-trifluoromethyl-phenyl)-ureido]-phenyl}-1H-pyrazolo[3,4-b]pyridin-6-yl)-cyclopropane-carboxylic acid dimethylamide], at Tie2, the IC50 is < 0.501 µM. Also, in test [1], the “Selectivity vs. InsR” value was >20 fold.

Consider `CN1CCN(Cc2ccc(NC(=O)Nc3ccc(-c4ccnc5c4cnn5C)cc3)cc2C(F)(F)F)CC1` [1.24, 1-[4-(4-Methyl-piperazin-1-ylmethyl)-3-trifluoromethyl-phenyl]-3-[4-(1-methyl-1H-pyrazolo[3,4-b]pyridin-4-yl)-phenyl]-urea], for which, at Tie2, the IC50 is < 0.501 µM. Moreover, the “Selectivity vs. InsR” value in test [1] is given as >20 fold.

In the case of `Cn1ncc2c(-c3ccc(NC(=O)Nc4cccc(C(F)(F)F)c4)cc3)cc(C3CCCCC3)nc21` [1.38, 1-[4-(6-Cyclohexyl-1-methyl-1H-pyrazolo[3,4-b]pyridin-4-yl)-phenyl]-3-(3-trifluoromethyl-phenyl)-urea], at Tie2, the IC50 was < 0.501 µM. In addition, the “Selectivity vs. InsR” value in test [1] is given as >20 fold.

As for `CN1CCN(Cc2ccc(NC(=O)Nc3ccc(-c4ccnc5[nH]ncc45)cc3)cc2C(F)(F)F)CC1` [1.33, 1-[4-(4-Methyl-piperazin-1-yl-methyl)-3-trifluoromethyl-phenyl]-3-[4-(1H-pyrazolo[3,4-b]pyridin-4-yl)-phenyl]-urea], the IC50 against Tie2 was < 0.501 µM. The “Selectivity vs. InsR” value in test [1] is listed as >20 fold.
